Source: ChEMBL document CHEMBL1201862, “PubChem BioAssay data set” (2004)
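Tested at 5 concentrations; 48 h exposure; 96-well plates; endpoints linearly interpolated, else capped at highest concentration. GI50 = concentration required for 50% inhibition of growth.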 The source made the active and inactive calls. No stated cut-off is given here; in the data, active = GI50 up to about 1.1 µM and inactive = higher.

Key:
Test in all cases: DTP human tumour cell line panel, 48 h
786-0 = test system: 786-0
A498 = test system: A498
A549 = test system: A549
ACHN = test system: ACHN
BT-549 = test system: BT-549
CAKI-1 = test system: CAKI-1
CCRF-CEM = test system: CCRF-CEM
COLO 205 = test system: COLO 205
DU-145 = test system: DU-145
EKVX = test system: EKVX
HCT-116 = test system: HCT-116
HCT-15 = test system: HCT-15
HL-60 = test system: HL-60
HOP-62 = test system: HOP-62
HOP-92 = test system: HOP-92
HT-29 = test system: HT-29
Hs-578T = test system: Hs-578T
IGROV-1 = test system: IGROV-1
K562 = test system: K562
KM12 = test system: KM12
LOX IMVI = test system: LOX IMVI
M14 = test system: M14
MCF7 = test system: MCF7
MDA-MB-231 = test system: MDA-MB-231
MDA-MB-435 = test system: MDA-MB-435
MDA-N = test system: MDA-N
MOLT-4 = test system: MOLT-4
Malme-3M = test system: Malme-3M
NCI-H226 = test system: NCI-H226
NCI-H23 = test system: NCI-H23
NCI-H460 = test system: NCI-H460
NCI-H522 = test system: NCI-H522
NCI/ADR-RES = test system: NCI/ADR-RES
OVCAR-3 = test system: OVCAR-3
OVCAR-4 = test system: OVCAR-4
OVCAR-5 = test system: OVCAR-5
OVCAR-8 = test system: OVCAR-8
PC-3 = test system: PC-3
RPMI-8226 = test system: RPMI-8226
RXF 393 = test system: RXF 393
SF-268 = test system: SF-268
SF-295 = test system: SF-295
SK-MEL-28 = test system: SK-MEL-28
SK-MEL-2 = test system: SK-MEL-2
SK-MEL-5 = test system: SK-MEL-5
SK-OV-3 = test system: SK-OV-3
SN12C = test system: SN12C
SNB-19 = test system: SNB-19
SNB-75 = test system: SNB-75
SR = test system: SR
SW-620 = test system: SW-620
T47D = test system: T47D
TK-10 = test system: TK-10
U-251 = test system: U-251
UACC-257 = test system: UACC-257
UACC-62 = test system: UACC-62
UO-31 = test system: UO-31
HCC 2998 = test system: HCC 2998
SF-539 = test system: SF-539

## O=C(Cn1ccc(=O)[nH]c1=O)Nc1ccc(C(=O)O)c(O)c1
786-0
  GI50: > 100 µM (inactive)
A498
  GI50: > 100 µM (inactive)
A549
  GI50: > 100 µM (inactive)
ACHN
  GI50: > 100 µM (inactive)
BT-549
  GI50: > 100 µM (inactive)
CAKI-1
  GI50: > 100 µM (inactive)
CCRF-CEM
  GI50: > 100 µM (inactive)
COLO 205
  GI50: > 100 µM (inactive)
DU-145
  GI50: > 100 µM (inactive)
EKVX
  GI50: > 100 µM (inactive)
HCT-116
  GI50: > 100 µM (inactive)
HCT-15
  GI50: > 100 µM
HL-60
  GI50: > 100 µM (inactive)
HOP-62
  GI50: 26.2 µM (inactive)
HOP-92
  GI50: > 100 µM (inactive)
HT-29
  GI50: > 100 µM (inactive)
Hs-578T
  GI50: > 100 µM (inactive)
IGROV-1
  GI50: > 100 µM (inactive)
K562
  GI50: > 100 µM (inactive)
KM12
  GI50: > 100 µM (inactive)
LOX IMVI
  GI50: > 100 µM (inactive)
M14
  GI50: > 100 µM (inactive)
MCF7
  GI50: > 100 µM (inactive)
MDA-MB-231
  GI50: > 100 µM (inactive)
MDA-MB-435
  GI50: > 100 µM (inactive)
MDA-N
  GI50: > 100 µM (inactive)
MOLT-4
  GI50: > 100 µM (inactive)
Malme-3M
  GI50: > 100 µM (inactive)
NCI-H226
  GI50: > 100 µM (inactive)
NCI-H23
  GI50: > 100 µM (inactive)
NCI-H460
  GI50: > 100 µM (inactive)
NCI-H522
  GI50: > 100 µM (inactive)
NCI/ADR-RES
  GI50: > 100 µM (inactive)
OVCAR-3
  GI50: > 100 µM (inactive)
OVCAR-4
  GI50: > 100 µM (inactive)
OVCAR-5
  GI50: > 100 µM (inactive)
OVCAR-8
  GI50: > 100 µM (inactive)
PC-3
  GI50: > 100 µM (inactive)
RPMI-8226
  GI50: > 100 µM (inactive)
RXF 393
  GI50: > 100 µM (inactive)
SF-268
  GI50: > 100 µM (inactive)
SF-295
  GI50: 18.2 µM (inactive)
SK-MEL-28
  GI50: > 100 µM (inactive)
SK-MEL-2
  GI50: > 100 µM (inactive)
SK-MEL-5
  GI50: > 100 µM (inactive)
SK-OV-3
  GI50: < 0.01 µM (active)
SN12C
  GI50: > 100 µM (inactive)
SNB-19
  GI50: > 100 µM (inactive)
SNB-75
  GI50: > 100 µM (inactive)
SR
  GI50: > 100 µM (inactive)
SW-620
  GI50: > 100 µM (inactive)
T47D
  GI50: > 100 µM (inactive)
TK-10
  GI50: > 100 µM (inactive)
U-251
  GI50: > 100 µM (inactive)
UACC-257
  GI50: > 100 µM (inactive)
UACC-62
  GI50: > 100 µM (inactive)
UO-31
  GI50: > 100 µM (inactive)

## COC(=O)C(=O)C(C(=O)C(=O)Nc1ccccc1C(N)=O)c1nc2ccc(Cl)cc2nc1O (configuration not stated)
786-0
  GI50: > 100 µM (inactive)
A498
  GI50: > 100 µM (inactive)
A549
  GI50: > 100 µM (inactive)
ACHN
  GI50: > 100 µM (inactive)
BT-549
  GI50: > 100 µM (inactive)
CAKI-1
  GI50: 82.8 µM (inactive)
CCRF-CEM
  GI50: > 100 µM (inactive)
COLO 205
  GI50: > 100 µM (inactive)
DU-145
  GI50: > 100 µM (inactive)
HCC 2998
  GI50: > 100 µM (inactive)
HCT-116
  GI50: > 100 µM (inactive)
HCT-15
  GI50: > 100 µM
HL-60
  GI50: > 100 µM (inactive)
HOP-92
  GI50: > 100 µM (inactive)
HT-29
  GI50: > 100 µM (inactive)
Hs-578T
  GI50: 46.5 µM (inactive)
K562
  GI50: > 100 µM (inactive)
KM12
  GI50: > 100 µM (inactive)
LOX IMVI
  GI50: > 100 µM (inactive)
M14
  GI50: > 100 µM (inactive)
MCF7
  GI50: > 100 µM (inactive)
MDA-MB-231
  GI50: > 100 µM (inactive)
MDA-MB-435
  GI50: > 100 µM (inactive)
MDA-N
  GI50: > 100 µM (inactive)
MOLT-4
  GI50: > 100 µM (inactive)
NCI-H226
  GI50: > 100 µM (inactive)
NCI-H23
  GI50: > 100 µM (inactive)
NCI-H460
  GI50: > 100 µM (inactive)
NCI/ADR-RES
  GI50: > 100 µM (inactive)
OVCAR-3
  GI50: > 100 µM (inactive)
OVCAR-4
  GI50: > 100 µM (inactive)
OVCAR-5
  GI50: > 100 µM (inactive)
OVCAR-8
  GI50: > 100 µM (inactive)
PC-3
  GI50: > 100 µM (inactive)
RPMI-8226
  GI50: > 100 µM (inactive)
RXF 393
  GI50: > 100 µM (inactive)
SF-268
  GI50: > 100 µM (inactive)
SF-295
  GI50: > 100 µM (inactive)
SF-539
  GI50: > 100 µM (inactive)
SK-MEL-28
  GI50: > 100 µM (inactive)
SK-MEL-2
  GI50: > 100 µM (inactive)
SK-MEL-5
  GI50: > 100 µM (inactive)
SK-OV-3
  GI50: > 100 µM (inactive)
SN12C
  GI50: > 100 µM (inactive)
SNB-19
  GI50: > 100 µM (inactive)
SNB-75
  GI50: 33.7 µM (inactive)
SR
  GI50: > 100 µM (inactive)
SW-620
  GI50: > 100 µM (inactive)
T47D
  GI50: > 100 µM (inactive)
U-251
  GI50: > 100 µM (inactive)
UACC-257
  GI50: > 100 µM (inactive)
UACC-62
  GI50: > 100 µM (inactive)
UO-31
  GI50: > 100 µM (inactive)

## NC(CSCc1ccccc1)C(=O)O (configuration not stated)
786-0
  GI50: > 100 µM (inactive)
A498
  GI50: > 100 µM (inactive)
A549
  GI50: > 100 µM (inactive)
ACHN
  GI50: > 100 µM (inactive)
BT-549
  GI50: > 100 µM (inactive)
CAKI-1
  GI50: > 100 µM (inactive)
CCRF-CEM
  GI50: > 100 µM (inactive)
COLO 205
  GI50: > 100 µM (inactive)
DU-145
  GI50: > 100 µM (inactive)
EKVX
  GI50: > 100 µM (inactive)
HCC 2998
  GI50: > 100 µM (inactive)
HCT-116
  GI50: > 100 µM (inactive)
HCT-15
  GI50: > 100 µM
HL-60
  GI50: > 100 µM (inactive)
HOP-62
  GI50: > 100 µM (inactive)
HOP-92
  GI50: > 100 µM (inactive)
HT-29
  GI50: > 100 µM (inactive)
Hs-578T
  GI50: > 100 µM (inactive)
IGROV-1
  GI50: > 100 µM (inactive)
K562
  GI50: > 100 µM (inactive)
KM12
  GI50: > 100 µM (inactive)
LOX IMVI
  GI50: > 100 µM (inactive)
M14
  GI50: > 100 µM (inactive)
MCF7
  GI50: > 100 µM (inactive)
MDA-MB-231
  GI50: > 100 µM (inactive)
MDA-MB-435
  GI50: > 100 µM (inactive)
MDA-N
  GI50: > 100 µM (inactive)
Malme-3M
  GI50: > 100 µM (inactive)
NCI-H226
  GI50: > 100 µM (inactive)
NCI-H23
  GI50: > 100 µM (inactive)
NCI-H460
  GI50: > 100 µM (inactive)
NCI-H522
  GI50: > 100 µM (inactive)
NCI/ADR-RES
  GI50: > 100 µM (inactive)
OVCAR-3
  GI50: > 100 µM (inactive)
OVCAR-4
  GI50: > 100 µM (inactive)
OVCAR-5
  GI50: > 100 µM (inactive)
OVCAR-8
  GI50: > 100 µM (inactive)
PC-3
  GI50: > 100 µM (inactive)
RPMI-8226
  GI50: > 100 µM (inactive)
RXF 393
  GI50: > 100 µM (inactive)
SF-268
  GI50: > 100 µM (inactive)
SF-295
  GI50: > 100 µM (inactive)
SK-MEL-28
  GI50: > 100 µM (inactive)
SK-MEL-2
  GI50: > 100 µM (inactive)
SK-MEL-5
  GI50: > 100 µM (inactive)
SK-OV-3
  GI50: > 100 µM (inactive)
SN12C
  GI50: > 100 µM (inactive)
SNB-19
  GI50: > 100 µM (inactive)
SNB-75
  GI50: > 100 µM (inactive)
SR
  GI50: > 100 µM (inactive)
SW-620
  GI50: > 100 µM (inactive)
T47D
  GI50: > 100 µM (inactive)
TK-10
  GI50: > 100 µM (inactive)
U-251
  GI50: > 100 µM (inactive)
UACC-257
  GI50: > 100 µM (inactive)
UACC-62
  GI50: > 100 µM (inactive)
UO-31
  GI50: > 100 µM (inactive)
